Reference: patent US20240294535A1, “IMIDAZOTRIAZINE THIOBENZAMIDE DERIVATIVE, AND PREPARATION METHOD AND APPLICATION THEREOF” (Yunbaiyao Zhengwu Science and Technology (Shanghai) Co., …, priority 2023, published 2024)
Like-named read-outs stand apart in the source and are kept apart here.

How the values were obtained:
[1] = system: MKN-45 cells; experiment: Anti-proliferation activity, CTG, MKN-45 cells; assay type: cell-based
Protocol: (§1) Experimental objective: To evaluate the anti-proliferation activities of the compounds against MKN-45 cells, EBC-1 cells, Hs746T cells and Vero cells.
(§2) Experimental methods: Tumor cell lines were cultured and periodically passaged, and cells in logarithmic growth phase were taken for plate spreading. The cells were stained with Trypan blue, counted and adjusted to an appropriate density. 50 μL of cell suspension was added into each well of a culture plate, and 50 μL of nutrient solution without cells was added into a blank control well. The culture plate was precultured for 24 h in an incubator under the condition of 37° C., 5% CO2 and 100% relative humidity.
(§3) The DMSO stock solutions of the compounds 1-28 and Capmatinib were prepared, and diluted with Tecan D300e. Each compound was diluted to 7 concentration levels: 0.50 μM, 0.125 μM, 0.031 μM, 0.0078 μM, 0.0020 μM, 0.00049 μM, 0.00012 μM. The experiment was carried out in triplicate.
(§4) 50 μL of the solution was added into each designated well, and the culture plate was incubated for 48 h. 50 μL of CTG working solution was added to each well. The culture plate was wrapped with aluminum foil to avoid light and shaken in the shaker for 2 min to induce cell lysis. The culture plate was placed at room temperature for 10 min to stabilize light-emitting signal which was detected with a 2014 EnVision plate reader. Experimental data was processed by GraphPad Prism 7 to calculate IC50.

[2] = system: EBC-1 cells; experiment: Anti-proliferation activity, CTG, EBC-1 cells; assay type: cell-based, human
Protocol: as §1, §2, §3, §4

[3] = system: Hs746T cells; experiment: Anti-proliferation activity, CTG, Hs746T cells; assay type: cell-based
Protocol: as §1, §2, §3, §4

[4] = system: Vero cells; experiment: Anti-proliferation activity, CTG, Vero cells; assay type: cell-based
Protocol: as §1, §2, §3, §4

[5] = system: human EBC-1 cell subcutaneous xenograft model; experiment: In vivo anti-tumor assessment in EBC-1 cell xenograft tumor mouse model; set-up: species or system mice; settings: 10 mg/kg P.O. QD × 15 days; for inhibition of growth of the tumor in mice (tumor volume change): FIG. 2
Protocol: Experimental objective: To investigate in vivo efficacy of representative compounds on human lung squamous carcinoma cell (human EBC-1 cell) subcutaneous xenograft model.
Experimental methods: The EBC-1 cell xenograft tumor mouse model was used, according to the diameters of tumor, the tumor volume (TV), relative tumor volume (RTV), relative tumor proliferation rate (T/C (%)) and tumor growth inhibition value (TGI (%)) were calculated.
TGI (%) or T/C (%) of the compounds was evaluated. TGI (%) reflects a tumor growth inhibitory rate. TGI (%) was calculated as follows: TGI (%)=[1−(average tumor volume at the end of administration in a treatment group-average tumor volume at the beginning of administration in the treatment group)/(average tumor volume at the end in a solvent control group-average tumor volume at the beginning in the solvent control group)]×100%.
T/C (%) was calculated as follows: T/C (%)=TRTV/CRTV×100%; where TRTV is treatment RTV, and CRTV is negative control RTV. According to the measurement results of the tumor, RTV was calculated, and the calculating formula for RTV is as follows: RTV=Vt/V0; where V0 is the average tumor volume measured on the day of first administration; and Vt is the average tumor volume measured on a specified day. TRTV and CRTV were measured on the same day.

[6] = in vivo; settings: both, Kunming, mouse, po
[7] = target: c-MET (Homo sapiens (Human), UniProt P08581); experiment: c-MET kinase inhibitory activity (ELISA, poly(Glu,Tyr) substrate); assay type: biochemical; settings: read-out: c-MET kinase inhibitory enzymatic activity IC50
[8] = system: SPF Kunming mice; settings: mouse, in vivo, po
[9] = Homo sapiens, MKN-45 cells, 48 h, CTG
[10] = Homo sapiens, EBC-1 cells, 48 h, CTG
[11] = Homo sapiens, Hs746T cells, 48 h, CTG
[12] = Chlorocebus sabaeus, Vero cells, 48 h, CTG

Sequence of c-MET (P08581 25-1390): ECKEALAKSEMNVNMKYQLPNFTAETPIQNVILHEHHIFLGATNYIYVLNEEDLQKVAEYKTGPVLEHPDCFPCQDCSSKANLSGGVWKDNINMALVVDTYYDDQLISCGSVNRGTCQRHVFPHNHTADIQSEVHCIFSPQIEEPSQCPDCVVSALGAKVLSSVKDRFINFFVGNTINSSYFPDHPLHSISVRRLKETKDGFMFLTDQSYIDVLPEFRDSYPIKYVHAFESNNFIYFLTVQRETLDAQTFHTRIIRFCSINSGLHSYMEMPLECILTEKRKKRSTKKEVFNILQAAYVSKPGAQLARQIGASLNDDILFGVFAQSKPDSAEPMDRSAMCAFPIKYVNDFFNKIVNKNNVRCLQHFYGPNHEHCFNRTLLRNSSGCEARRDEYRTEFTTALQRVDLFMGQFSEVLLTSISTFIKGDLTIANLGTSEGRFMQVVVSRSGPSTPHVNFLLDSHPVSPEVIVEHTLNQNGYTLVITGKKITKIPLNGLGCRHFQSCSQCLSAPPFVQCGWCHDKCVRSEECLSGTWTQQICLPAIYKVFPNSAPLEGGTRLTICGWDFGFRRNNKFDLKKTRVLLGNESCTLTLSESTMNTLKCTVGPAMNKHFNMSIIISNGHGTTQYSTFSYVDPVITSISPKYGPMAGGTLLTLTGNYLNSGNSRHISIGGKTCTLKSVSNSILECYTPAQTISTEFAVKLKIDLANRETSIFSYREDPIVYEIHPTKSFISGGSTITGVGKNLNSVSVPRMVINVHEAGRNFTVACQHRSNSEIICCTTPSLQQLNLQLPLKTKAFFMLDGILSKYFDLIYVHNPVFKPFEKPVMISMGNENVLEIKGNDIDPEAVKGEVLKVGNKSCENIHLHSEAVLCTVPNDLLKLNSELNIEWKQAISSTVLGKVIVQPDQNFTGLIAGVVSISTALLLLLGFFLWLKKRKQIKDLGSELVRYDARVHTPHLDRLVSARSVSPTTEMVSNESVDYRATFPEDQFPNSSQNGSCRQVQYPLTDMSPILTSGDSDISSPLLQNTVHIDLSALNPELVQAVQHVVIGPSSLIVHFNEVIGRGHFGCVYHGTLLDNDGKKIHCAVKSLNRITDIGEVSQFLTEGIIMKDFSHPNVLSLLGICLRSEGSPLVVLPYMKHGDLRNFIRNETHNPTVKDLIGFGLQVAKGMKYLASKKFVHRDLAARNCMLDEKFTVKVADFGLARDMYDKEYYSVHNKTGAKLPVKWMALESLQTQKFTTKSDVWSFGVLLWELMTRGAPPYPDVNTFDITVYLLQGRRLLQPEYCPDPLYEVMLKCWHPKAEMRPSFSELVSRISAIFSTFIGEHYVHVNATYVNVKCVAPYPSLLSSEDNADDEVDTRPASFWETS

Structure (SMILES)	IC50 [1, 9]	IC50 [2, 10]	IC50 [3, 11]	IC50 [4, 12]	LD50 [6]	IC50 ([7]; ATP 4 μM, 37° C. 1 h)	IC50 ([1]; MKN-45 cells, 48 h, CTG)	IC50 ([2]; EBC-1 cells, 48 h, CTG)	IC50 ([3]; Hs746T cells, 48 h, CTG)	IC50 ([4]; Vero cells, 48 h, CTG)	LD50 [8]	further results
CNC(=O)c1ccc(-c2cnc3ncc(Cc4ccc5ncccc5c4)n3n2)cc1F [Capmatinib, reference compound]	5.7 nM	3.9 nM	4.5 nM	68 nM	164 mg/kg							T/C(%) [5]: 24.97%; TGI(%) [5]: 91.23%; Tumor Volume (Day 15) [5]: 225 ± 25 mm^3; changes in body weight of the mice ([5]; end of the experiment, FIG. 1): greater losses in body weight compared to those in the other groups; inhibition of growth of the tumor in mice (tumor volume change) ([5]; end of the experiment): could effectively inhibit the growth of the tumor in mice
CNC(=S)c1ccc(-c2cnc3ncc(Cc4ccc5ncccc5c4)n3n2)cc1F [Compound 1]						0.0022 nM	1.5 nM	1.4 nM	1.6 nM	129 nM	293 mg/kg	T/C(%) [5]: 15.09%; TGI(%) [5]: 103.24%; Tumor Volume (Day 15) [5]: 136 ± 17 mm^3; inhibition of growth of the tumor in mice (tumor volume change) ([5]; end of the experiment): better inhibitory effects
CN(C)C(=S)c1ccc(-c2cnc3ncc(Cc4ccc5ncccc5c4)n3n2)cc1F [Compound 2]	1.1 nM	1.2 nM	1.4 nM	126 nM	284 mg/kg	0.0019 nM						
CC(C)NC(=S)c1ccc(-c2cnc3ncc(Cc4ccc5ncccc5c4)n3n2)cc1F [Compound 3]	1.5 nM	1.8 nM	1.5 nM	101 nM	291 mg/kg	0.0016 nM						
Fc1cc(-c2cnc3ncc(Cc4ccc5ncccc5c4)n3n2)ccc1C(=S)NC1CC1 [Compound 4]	1.9 nM	1.8 nM	1.4 nM	216 nM	320 mg/kg	0.0025 nM						
CNC(=S)c1ccc(-c2cnc3ncc(Cc4ccc5ncccc5c4)n3n2)c(F)c1 [Compound 5]						0.0021 nM	1.6 nM	1.2 nM	1.6 nM	138 nM	298 mg/kg	
CNC(=S)c1cc(F)c(-c2cnc3ncc(Cc4ccc5ncccc5c4)n3n2)cc1F [Compound 6]						0.0015 nM	1.9 nM	1.9 nM	1.9 nM	116 nM	292 mg/kg	
CNC(=S)c1ccc(-c2cnc3ncc(Cc4ccc5ncccc5c4)n3n2)c(F)c1F [Compound 7]						0.0022 nM	1.3 nM	1.2 nM	1.8 nM	127 nM	305 mg/kg	
CNC(=S)c1ccc(-c2cnc3ncc(Cc4ccc5ncccc5c4)n3n2)cc1Cl [Compound 8]						0.0019 nM	1.7 nM	1.8 nM	1.8 nM	142 nM	321 mg/kg	
CNC(=S)c1ccc(-c2cnc3ncc(Cc4ccc5ncccc5c4)n3n2)cc1N [Compound 9]	1.8 nM	1.6 nM	1.4 nM	252 nM	297 mg/kg	0.0017 nM						
CNC(=S)c1ccc(-c2cnc3ncc(Cc4ccc5ncccc5c4)n3n2)cc1NC [Compound 10]	1.8 nM	1.9 nM	1.5 nM	164 nM	292 mg/kg	0.0016 nM						
CNC(=S)c1ccc(-c2cnc3ncc(Cc4ccc5ncccc5c4)n3n2)cc1O [Compound 11]	1.4 nM	1.8 nM	1.4 nM	231 nM	296 mg/kg	0.0025 nM						
CNC(=S)c1ccc(-c2cnc3ncc(Cc4ccc5ncccc5c4)n3n2)cc1OC [Compound 12]	1.1 nM	1.7 nM	1.1 nM	236 nM	286 mg/kg	0.0019 nM						
CNC(=S)c1ccc(-c2cnc3ncc(Cc4cc(F)c5ncccc5c4)n3n2)cc1F [Compound 13]						0.0017 nM	1.2 nM	1.7 nM	1.4 nM	152 nM	314 mg/kg	
CNC(=S)c1ccc(-c2cnc3ncc(Cc4cc(F)c5ncccc5c4F)n3n2)cc1F [Compound 14]	1.5 nM	1.2 nM	1.1 nM	226 nM	291 mg/kg	0.0026 nM						
CNC(=S)c1ccc(-c2cnc3ncc(Cc4cc(Cl)c5ncccc5c4)n3n2)cc1F [Compound 15]						0.0013 nM	1.6 nM	1.5 nM	1.3 nM	238 nM	305 mg/kg	
CNC(=S)c1ccc(-c2cnc3ncc(Cc4cc(C(F)(F)F)c5ncccc5c4)n3n2)cc1F [Compound 16]						0.0015 nM	1.3 nM	1.3 nM	1.7 nM	156 nM	296 mg/kg	T/C(%) [5]: 17.98%; TGI(%) [5]: 99.73%; Tumor Volume (Day 15) [5]: 162 ± 23 mm^3; inhibition of growth of the tumor in mice (tumor volume change) ([5]; end of the experiment): better inhibitory effects
CNC(=S)c1ccc(-c2cnc3ncc(Cc4ccc5occc5c4)n3n2)cc1F [Compound 18]	1.5 nM	1.1 nM	1.5 nM	148 nM	302 mg/kg	0.0013 nM						
CNC(=S)c1ccc(-c2cnc3ncc(Cc4ccc5scnc5c4)n3n2)cc1F [Compound 19]	1.9 nM	1.4 nM	1.4 nM	251 nM	297 mg/kg	0.0019 nM						
CNC(=S)c1ccc(-c2cnc3ncc(Cc4ccc5c(c4)OCO5)n3n2)cc1F [Compound 20]	1.1 nM	1.8 nM	1.2 nM	164 nM	305 mg/kg	0.0021 nM						
CNC(=S)c1ccc(-c2cnc3ncc(C(O)c4ccc5ncccc5c4)n3n2)cc1F (centres unmarked) [Compound 21]						0.0014 nM	1.2 nM	1.3 nM	1.1 nM	132 nM	298 mg/kg	
CNC(=S)c1ccc(-c2cnc3ncc(C(=O)c4ccc5ncccc5c4)n3n2)cc1F [Compound 22]						0.0016 nM	1.5 nM	1.7 nM	1.8 nM	231 nM		
CNC(=S)c1ccc(-c2cnc3ncc(C(OC)c4ccc5ncccc5c4)n3n2)cc1F (centres unmarked) [Compound 23]						0.0015 nM	1.7 nM	1.1 nM	1.4 nM	157 nM	320 mg/kg	
CNC(=S)c1ccc(-c2cnc3ncc(C(c4ccc5ncccc5c4)N(C)C)n3n2)cc1F (centres unmarked) [Compound 25]											287 mg/kg	IC50 [7]: 0.0023 nM; IC50 [1]: 1.3 nM; IC50 [2]: 1 nM; IC50 [3]: 1.3 nM; IC50 [4]: 192 nM
CNC(=S)c1ccc(-c2cnc3ncc(C(N)c4ccc5ncccc5c4)n3n2)cc1F (centres unmarked) [Compound 26]						0.0017 nM	1.1 nM	1.8 nM	1.1 nM	282 nM	295 mg/kg	
CNC(=S)c1ccc(-c2cnc3ncc(/C(=N/OC)c4ccc5ncccc5c4)n3n2)cc1F [Compound 27]						0.0019 nM	1.3 nM	1.5 nM	1.8 nM	163 nM	310 mg/kg	
CNC(=S)c1ccc(-c2cnc3ncc(C(F)(F)c4ccc5ncccc5c4)n3n2)cc1F [Compound 28]						0.0018 nM	1.5 nM	1.2 nM	1.4 nM	237 nM	294 mg/kg	
